The record followed here is US20110257208A1, “COMPOUNDS USEFUL AS FAAH MODULATORS AND USES THEREOF” (priority 2008, published 2011).

Where only a bound is given, the exact number is not on record here.

This test deals with T1, hFAAH (Homo sapiens, UniProt O00519).
T1 construct: expressed in transfected cells; host or cells: HEK293-TRex (Invitrogen) stably transfected with hFAAH in the pcDNA5-Tet-off vector, or T84 human colon epithelial cells (endogenous hFAAH); used as a microsomal preparation
T1 sequence (O00519 1-579): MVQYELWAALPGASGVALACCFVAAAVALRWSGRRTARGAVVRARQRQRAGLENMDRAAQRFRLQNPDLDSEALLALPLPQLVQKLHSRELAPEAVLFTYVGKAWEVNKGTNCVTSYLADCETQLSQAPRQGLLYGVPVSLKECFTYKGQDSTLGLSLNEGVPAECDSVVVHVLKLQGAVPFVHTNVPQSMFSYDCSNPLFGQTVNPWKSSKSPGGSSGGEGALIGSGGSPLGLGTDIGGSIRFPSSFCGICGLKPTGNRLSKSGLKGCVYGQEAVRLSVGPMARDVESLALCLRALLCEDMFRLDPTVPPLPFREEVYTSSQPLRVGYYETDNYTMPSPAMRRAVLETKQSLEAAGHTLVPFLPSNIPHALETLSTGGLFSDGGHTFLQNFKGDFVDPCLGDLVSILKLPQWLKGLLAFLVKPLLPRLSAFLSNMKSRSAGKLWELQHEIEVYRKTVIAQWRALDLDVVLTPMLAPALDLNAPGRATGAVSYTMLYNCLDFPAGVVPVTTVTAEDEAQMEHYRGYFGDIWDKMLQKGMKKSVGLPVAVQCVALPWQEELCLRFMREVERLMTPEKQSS
Put plainly: Fluorimetric assay with hFAAH microsomes (enzymatic, fluorescence based). The class given is biochemical. The settings on record: compound at 1 uM, AA-AMC substrate. The protocol:
Human cell line T84 (human colon epithelial cells), which expresses endogenous hFAAH, or HEK293-TRex cells (Invitrogen) stably transfected with hFAAH in the pcDNA5-Tet-off vector are cultured in medium containing DMEM, 10% FBS penicillin/streptomycin, glutamax, 200 μg/ml hygromycin and 0.5 μg/ml blasticidin. Cell collection is done 24 h after induction with doxycycline by first washing the cells with cold PBS and then incubating them with Versene before centrifugation. Cell pellets are then stored at −80° C. until needed. For homogenization, the cell pellets are thawed on ice […] and resuspended in homogenization buffer (50 mM HEPES (pH 7.4), 1 mM EDTA, 1 μM Pepstatin A, 100 μM Leupeptin, 0.1 mg/mL aprotinin). Cell suspensions are then homogenized on ice using the Polytron 1200 C at setting 6 for three 30-second intervals with 30-second rests. The suspension is centrifuged at 1000 g for 10 minutes at 4° C. and the supernatant is collected and further centrifuged at 24000 rpm for 30 minutes at 4° C. using an ultracentrifuge. Pellets are resuspended by adding in cold microsomal buffer (50 mM HEPES (pH 7.4) and 1 mM EDTA) and sheared through a 23-gauge needle five times, keeping the suspension on ice. Protein concentrations are determined using the BCA assay and aliquoted preparations are stored at −80° C. until needed.
Compound potency against hFAAH is determined using an enzymatic assay with a fluorescence readout. Briefly, experiments were carried out in a 96-well plate format (Corning Costar, # 3370) with a total well volume of 160 μL with components added in the following order: assay buffer (50 mM HEPES (pH 7.4), 1 mM EDTA, 1.4 mg/mL BSA), compound solutions (7 different concentrations per compound in duplicate), microsomal enzyme preparation (10 μg per well) and substrate [AA-AMC (arachadonyl 7-amino 4-methyl coumarin amide), 2 μM]. After a brief shaking, a kinetic read of the plate is obtained using a Tecan Safire II in kinetic mode for 275 cycles with excitation and emission wavelengths of 355 and 460 nm, respectively. Raw data is then processed and analyzed using Assay Explorer and GraphPad Prism.
The following compounds have been or can be prepared according to the methods of the invention. An enzymatic (fluorescence based) assay is performed as described above. In Table 1, activity of each compound is expressed as follows: • ++++ % Inhibition >75% • +++ % Inhibition >50% • ++ % Inhibition >25% • + % Inhibition <25%
`c1ccc(CN2Cc3ncnc(Nc4cnc5ccccc5c4)c3C2)cc1` [Compound 1, (6-Benzyl-6,7-dihydro-5H-pyrrolo[3,4-d]pyrimidin-4-yl)-quinolin-3-yl-amine] came in with an inhibition at 1 µM of more than 75%.

`c1ccc2ncc(Nc3ncnc4c3CN(CC3CCCCC3)C4)cc2c1` [Compound 2, (6-Cyclohexylmethyl-6,7-dihydro-5H-pyrrolo[3,4-d]pyrimidin-4-yl)-quinolin-3-yl-amine] gave an inhibition at 1 µM of more than 75%. `CCN1Cc2ncnc(Nc3cnc4ccccc4c3)c2C1` [Compound 3, (6-Ethyl-6,7-dihydro-5H-pyrrolo[3,4-d]pyrimidin-4-yl)-quinolin-3-yl-amine] had an inhibition at 1 µM of less than 25%.

Molecule `CCCN1Cc2ncnc(Nc3cnc4ccccc4c3)c2C1` [Compound 4, (6-Propyl-6,7-dihydro-5H-pyrrolo[3,4-d]pyrimidin-4-yl)-quinolin-3-yl-amine] showed an inhibition at 1 µM of less than 25%. `c1ccc2ncc(Nc3ncnc4c3CN(CC3CC3)C4)cc2c1` [Compound 5, (6-Cyclopropylmethyl-6,7-dihydro-5H-pyrrolo[3,4-d]pyrimidin-4-yl)-quinolin-3-yl-amine] had an inhibition at 1 µM of less than 25%. Molecule `CCCCN1Cc2ncnc(Nc3cnc4ccccc4c3)c2C1` [Compound 6, (6-Butyl-6,7-dihydro-5H-pyrrolo[3,4-d]pyrimidin-4-yl)-quinolin-3-yl-amine] showed an inhibition at 1 µM of more than 25%. On to `CC(C)CN1Cc2ncnc(Nc3cnc4ccccc4c3)c2C1` [Compound 7, (6-Isobutyl-6,7-dihydro-5H-pyrrolo[3,4-d]pyrimidin-4-yl)-quinolin-3-yl-amine], for which the inhibition at 1 µM is more than 25%. For `CCC(C)CN1Cc2ncnc(Nc3cnc4ccccc4c3)c2C1` (stereo not shown) [Compound 8, [6-(2-Methyl-butyl)-6,7-dihydro-5H-pyrrolo[3,4-d]pyrimidin-4-yl]-quinolin-3-yl-amine], the inhibition at 1 µM is more than 75%. `CC(C)CCN1Cc2ncnc(Nc3cnc4ccccc4c3)c2C1` [Compound 9, [6-(3-Methyl-butyl)-6,7-dihydro-5H-pyrrolo[3,4-d]pyrimidin-4-yl]-quinolin-3-yl-amine] yielded an inhibition at 1 µM of more than 50%. `CCCCCN1Cc2ncnc(Nc3cnc4ccccc4c3)c2C1` [Compound 10, (6-Pentyl-6,7-dihydro-5H-pyrrolo[3,4-d]pyrimidin-4-yl)-quinolin-3-yl-amine] came in with an inhibition at 1 µM of more than 50%. Regarding `CC(C)(C)CN1Cc2ncnc(Nc3cnc4ccccc4c3)c2C1` [Compound 11, [6-(2,2-Dimethyl-propyl)-6,7-dihydro-5H-pyrrolo[3,4-d]pyrimidin-4-yl]-quinolin-3-yl-amine], the inhibition at 1 µM is more than 25%. `c1ccc2ncc(Nc3ncnc4c3CN(CC3CCCC3)C4)cc2c1` [Compound 12, (6-Cyclopentylmethyl-6,7-dihydro-5H-pyrrolo[3,4-d]pyrimidin-4-yl)-quinolin-3-yl-amine] had an inhibition at 1 µM of more than 75%. `c1ccc2ncc(Nc3ncnc4c3CN(CC3CCOC3)C4)cc2c1` (stereo not shown) [Compound 13, Quinolin-3-yl-[6-(tetrahydro-furan-3-ylmethyl)-6,7-dihydro-5H-pyrrolo[3,4-d]pyrimidin-4-yl]-amine] came in with an inhibition at 1 µM of more than 25%. The molecule `CCC(CC)CN1Cc2ncnc(Nc3cnc4ccccc4c3)c2C1` [Compound 14, [6-(2-Ethyl-butyl)-6,7-dihydro-5H-pyrrolo[3,4-d]pyrimidin-4-yl]-quinolin-3-yl-amine] had an inhibition at 1 µM of more than 75%. In turn, `CC(C)(C)CCN1Cc2ncnc(Nc3cnc4ccccc4c3)c2C1` [Compound 15, [6-(3,3-Dimethyl-butyl)-6,7-dihydro-5H-pyrrolo[3,4-d]pyrimidin-4-yl]-quinolin-3-yl-amine] showed an inhibition at 1 µM of more than 25%. In the case of `c1ccc2ncc(Nc3ncnc4c3CN(CC3CCCOC3)C4)cc2c1` (stereo not shown) [Compound 16, Quinolin-3-yl-[6-(tetrahydro-pyran-3-ylmethyl)-6,7-dihydro-5H-pyrrolo[3,4-d]pyrimidin-4-yl]-amine], the inhibition at 1 µM is more than 50%.
